Measurements published in patent US8445502B2, “Pharmaceutical formulations comprising salts of a protein kinase inhibitor and methods of using same” (Astex Pharmaceuticals, Inc., priority 2007, dated 2013).
Where two headings read alike, the source gives them in different places.

Key:
[1] = pKa by mixed-solvent (methanol-water) method; type: physicochemical
Experimental: The apparent pKa in aqueous solution was extrapolated from the determined pKa values (the apparent ionization constants in methanol-water solvent) plotted versus the percent methanol used. The apparent pKa of MP470 was determined to be 6.7.

[2] = log P by shake-flask octanol/water partitioning; type: physicochemical; conditions: aqueous phase citrate buffer pH 2
Experimental: The log P value for MP470 was determined by the traditional shake-flask method with octanol/water partitioning. Citrate buffer at pH 2 was the aqueous phase. The concentration of the solute in the organic phase was analyzed by HPLC analysis of MP470 with respect to a calibration curve ranging from 0.2 to 200 μg/mL MP470. The majority of MP470 was found in the organic phase. The log P value of MP470 was determined to be 2.3.

in vivo [3] = conditions: both, beagle, dog, iv
Experimental: The purpose of these studies was to determine the highest level of MP470 free base that can be administered intravenously to dogs without causing extreme illness, maximum tolerated dose (MTD). In both studies a single male and a single female beagle dog were injected intravenously with MP470.
In the second study we tested doses of 0.625, 1.25, 2.5, 5, 10, and 20 mg/kg MP470 in 1 male and 1 female beagle dog with 48-96 hrs between dose escalations, with the exception of 11 days between dose 5 and 6. Additionally, in this study approximately 5-10 second electrocardiograph (ECG) tracings in a lead II configuration were obtained from each dog prior to each dose, approximately 20 minutes after the start of dosing, and immediately after completion of dosing.

[4] = Solubility of MP470.HCl in common solvents at room temperature; type: physicochemical
Flt3 (D835Y) (h) = Flt3 (D835Y) (h) (Homo sapiens, UniProt P36888, D835Y); assay: Mutant kinase IC50 screen; type: biochemical
Experimental: (§1) IC50 values for MP470.HCl were determined for four mutant c-Kit kinases, one mutant Flt3 kinase, and two mutant PDGFRα kinases.

PDGFRα (D842V) (h) = PDGFRα (D842V) (h) (Homo sapiens, UniProt P16234, D842V); assay: Mutant kinase IC50 screen; type: biochemical
Chain of PDGFRα (D842V) (h) (P16234 24-1089 D842V): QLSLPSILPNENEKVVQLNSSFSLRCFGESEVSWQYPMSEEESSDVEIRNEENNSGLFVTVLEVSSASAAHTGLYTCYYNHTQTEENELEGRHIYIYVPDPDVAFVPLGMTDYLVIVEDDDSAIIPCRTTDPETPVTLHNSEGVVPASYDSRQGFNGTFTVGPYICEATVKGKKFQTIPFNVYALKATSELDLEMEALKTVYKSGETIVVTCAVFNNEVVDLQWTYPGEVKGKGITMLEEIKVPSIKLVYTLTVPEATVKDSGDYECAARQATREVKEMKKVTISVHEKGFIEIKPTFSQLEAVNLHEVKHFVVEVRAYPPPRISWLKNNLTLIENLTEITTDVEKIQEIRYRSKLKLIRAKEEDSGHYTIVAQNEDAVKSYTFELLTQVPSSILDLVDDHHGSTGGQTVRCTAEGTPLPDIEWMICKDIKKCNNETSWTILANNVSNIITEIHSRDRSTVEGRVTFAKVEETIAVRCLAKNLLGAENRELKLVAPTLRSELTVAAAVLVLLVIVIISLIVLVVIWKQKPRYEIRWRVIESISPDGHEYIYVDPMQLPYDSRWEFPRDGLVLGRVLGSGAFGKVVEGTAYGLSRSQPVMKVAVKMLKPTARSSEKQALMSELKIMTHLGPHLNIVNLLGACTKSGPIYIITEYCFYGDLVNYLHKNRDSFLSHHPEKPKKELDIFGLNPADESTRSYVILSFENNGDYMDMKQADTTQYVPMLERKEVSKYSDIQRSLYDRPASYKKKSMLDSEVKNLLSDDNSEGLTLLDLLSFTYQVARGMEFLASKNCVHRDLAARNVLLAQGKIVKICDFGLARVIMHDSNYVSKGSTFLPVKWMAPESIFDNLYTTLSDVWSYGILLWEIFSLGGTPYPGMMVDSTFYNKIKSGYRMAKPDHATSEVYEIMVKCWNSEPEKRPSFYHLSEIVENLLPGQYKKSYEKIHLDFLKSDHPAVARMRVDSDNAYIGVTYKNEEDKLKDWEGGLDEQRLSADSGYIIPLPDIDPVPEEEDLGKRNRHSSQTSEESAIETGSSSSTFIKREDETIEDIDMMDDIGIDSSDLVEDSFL
Experimental: as §1

PDGFRα (V561D) (h) = PDGFRα (V561D) (h) (Homo sapiens, UniProt P16234, V561D); assay: Mutant kinase IC50 screen; type: biochemical
Chain of PDGFRα (V561D) (h) (P16234 24-1089 V561D): as the sequence (P16234 24-1089 D842V) above, with V538D, V819D counted along it
Experimental: as §1

cKit (D816H) (h) = cKit (D816H) (h) (Homo sapiens, UniProt P10721, D816H); assay: Mutant kinase IC50 screen; type: biochemical
Chain of cKit (D816H) (h) (P10721 26-976 D816H): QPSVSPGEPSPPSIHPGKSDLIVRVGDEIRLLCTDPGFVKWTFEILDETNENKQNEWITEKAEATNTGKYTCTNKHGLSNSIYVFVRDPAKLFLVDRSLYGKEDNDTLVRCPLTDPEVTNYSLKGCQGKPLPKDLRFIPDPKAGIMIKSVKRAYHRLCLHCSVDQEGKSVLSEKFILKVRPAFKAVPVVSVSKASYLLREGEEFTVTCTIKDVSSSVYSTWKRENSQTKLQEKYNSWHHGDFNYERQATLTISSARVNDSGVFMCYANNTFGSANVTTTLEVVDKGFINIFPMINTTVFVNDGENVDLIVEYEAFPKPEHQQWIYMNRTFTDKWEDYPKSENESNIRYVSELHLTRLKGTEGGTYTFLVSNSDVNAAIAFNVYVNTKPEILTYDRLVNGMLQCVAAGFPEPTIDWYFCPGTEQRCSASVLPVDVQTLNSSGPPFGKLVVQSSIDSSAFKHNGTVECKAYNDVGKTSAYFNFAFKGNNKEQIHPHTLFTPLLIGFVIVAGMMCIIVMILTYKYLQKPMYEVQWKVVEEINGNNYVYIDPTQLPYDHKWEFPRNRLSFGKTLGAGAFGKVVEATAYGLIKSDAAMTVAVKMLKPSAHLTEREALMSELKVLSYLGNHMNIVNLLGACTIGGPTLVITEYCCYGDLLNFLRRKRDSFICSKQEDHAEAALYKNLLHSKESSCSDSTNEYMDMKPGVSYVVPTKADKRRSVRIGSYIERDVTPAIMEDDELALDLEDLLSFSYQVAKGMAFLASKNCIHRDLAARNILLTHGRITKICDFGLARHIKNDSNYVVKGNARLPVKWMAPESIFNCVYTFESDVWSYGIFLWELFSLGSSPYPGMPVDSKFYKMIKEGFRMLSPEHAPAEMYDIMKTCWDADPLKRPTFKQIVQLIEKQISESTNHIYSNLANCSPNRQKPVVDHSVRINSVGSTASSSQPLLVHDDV
Experimental: as §1

cKit (D816V) (h) = cKit (D816V) (h) (Homo sapiens, UniProt P10721, D816V); assay: Mutant kinase IC50 screen; type: biochemical
Chain of cKit (D816V) (h) (P10721 26-976 D816V): as the sequence (P10721 26-976 D816H) above, with H791V counted along it
Experimental: as §1

cKit (V560G) (h) = cKit (V560G) (h) (Homo sapiens, UniProt P10721, V560G); assay: Mutant kinase IC50 screen; type: biochemical
Chain of cKit (V560G) (h) (P10721 26-976 V560G): as the sequence (P10721 26-976 D816H) above, with V535G, H791D counted along it
Experimental: as §1

cKit (V654A) (h) = cKit (V654A) (h) (Homo sapiens, UniProt P10721, V654A); assay: Mutant kinase IC50 screen; type: biochemical
Chain of cKit (V654A) (h) (P10721 26-976 V654A): as the sequence (P10721 26-976 D816H) above, with V629A, H791D counted along it
Experimental: as §1

[5] = rat, in vivo
Experimental: Twenty-four rats were placed into four groups each consisting of three animals per sex. The animals were weighed the day before dosing, as well as just prior to dosing.
After intravenous infusion of MP470.HCl at 5 mg/kg, average MP470 peak plasma concentrations of 454.3 ng/mL for males and 370.7 ng/mL for females were attained at 0.083 hours (5 minutes), the first sampling point postdose. After oral administration of non-micronized MP470.HCl, peak plasma concentrations of MP470 were attained at 0.5-12 hours for Group 2 (25 mg/kg) and 4-12 hours for Group 3 (100 mg/kg, suspension). The extent of systemic exposure of rats to MP470, characterized by AUCO-∞, was approximately 3.8-fold and 2.9-fold higher in females than in males for Groups 2 and 3, respectively. Average AUCO-∞ values were higher at 100 mg/kg than at 25 mg/kg and the increases in AUCO-∞ were greater than dose-proportional.
After oral administration of micronized MP470.HCl (Group 4), peak plasma concentrations of MP470 were attained at 4-12 hours. The extent of systemic exposure of rats to MP470, characterized by AUCO-∞, was approximately 3.4-fold higher in females than in males for Group 4. The extent of exposure of rats to MP470, characterized by AUCO-∞, was 1.7-fold (males) and 1.4-fold (females) higher for non-micronized MP470 HCl (Group 3) than for micronized MP470 HCl (Group 4).

in vivo [6] = conditions: dog
Experimental: Two groups of dogs, each consisting of one male and one female, received alternating escalating single doses of 30, 60, 240, 1000, and 2000 mg/kg of the test article. MP470.HCl was administered by capsule. […] No test article related mortalities or clinical signs of toxicity were observed. Test article related effects were limited to emesis following administration of 1000 and 2000 mg/kg doses. Single oral dose NOEL was determined to be 240 mg/kg and the acute oral MTD was 2000 mg/kg (highest dose tested).

S=C(NCc1ccc2c(c1)OCO2)N1CCN(c2ncnc3c2oc2ccccc23)CC1 [MP470, 4-[1]benzofuro[3,2-d]pyrimidin-4-yl-N-(1,3-benzodioxol-5-ylmethyl)piperazine-1-carbothioamide]
pKa (apparent ionization constant) ([1]; 30% (v/v) methanol): 6.81 | pKa (apparent ionization constant) ([1]; 60% (v/v) methanol): 7.09 | pKa (apparent ionization constant) ([1]; 90% (v/v) methanol): 7.10 | apparent pKa ([1]; aqueous solution, extrapolated from pKa values in methanol-water): 6.7 | logP [2]: 2.3 | MTD at 0.5 h (in vivo [3]): 10 mg/kg

Cl.S=C(NCc1ccc2c(c1)OCO2)N1CCN(c2ncnc3c2oc2ccccc23)CC1 [MP470.HCl, 4-[1]benzofuro[3,2-d]pyrimidin-4-yl-N-(1,3-benzodioxol-5-ylmethyl)piperazine-1-carbothioamide hydrochloride]
Solubility ([4]; Benzyl alcohol): 48000 µg/mL | Solubility ([4]; DMF): 9000 µg/mL | Solubility ([4]; DMSO): 17000 µg/mL | Solubility ([4]; Ethanol): 400 µg/mL | Solubility ([4]; Glycerol): 4000 µg/mL | Solubility ([4]; Methanol): 3000 µg/mL | Solubility ([4]; Propylene glycol): 4000 µg/mL | Solubility (mg/mL) ([4]; Water): < detectable limit by HPLC | IC50 (Flt3 (D835Y) (h)): 8.05 µM | IC50 (PDGFRα (D842V) (h)): 0.081 µM | IC50 (PDGFRα (V561D) (h)): 0.04 µM | IC50 (cKit (D816H) (h)): 0.01 µM | IC50 (cKit (D816V) (h)): 0.95 µM | IC50 (cKit (V560G) (h)): 0.034 µM | IC50 (cKit (V654A) (h)): 0.127 µM | Bioavailability (%) ([5]; female): 100.21% | AUC INF ([5]; female, iv, 5 mg/kg): 2530.9 ng·h/mL | t1/2 ([5]; female, iv, 5 mg/kg): 2.6 to 2.9 h | AUC INF ([5]; female, po, 25 mg/kg): 12681.6 ng·h/mL | t1/2 ([5]; female, po, 25 mg/kg): 4.0 to 17.4 h | Bioavailability (%) ([5]; male): 43.40% | AUC INF ([5]; male, iv, 5 mg/kg): 1546.3 ng·h/mL | t1/2 ([5]; male, iv, 5 mg/kg): 3.1 to 4.4 h | AUC INF ([5]; male, po, 25 mg/kg): 3355.1 ng·h/mL | t1/2 ([5]; male, po, 25 mg/kg): 2.8 to 4.2 h | MTD at 24 h (in vivo [6]; both sexes, po): 2000 mg/kg | Single oral dose NOEL (in vivo [6]; both, 24 h): 240 mg/kg
